“Also recorded” adds a separate entry of the source.
Key:
[1] = tested on: GM1 deficient mice (HT, KO); test: Motor function in GM1 deficient mice (grip duration, irritant removal, pole climbing); assay type: in vivo, mouse; conditions: HT mice 200 DOA
Procedure: FIG. 4. […] Grip duration (a) and irritant removal (b) were tested in mice at 200 DOA before and after IP injection of L-DOPA.
FIG. 5. […] Mice (200 DOA) were treated IP with saline or compound XVIII (2.5 mg/Kg; 3×/wk) over 5 weeks. (a) grip duration; (b) irritant removal; (c) pole climbing.
HT mice (200 DOA) were treated with saline or analog XVIII (2.5 mg/Kg; 3×/wk; IP) over 5 weeks.

[2] = tested on: HT GM1 deficient mice; test: Cognitive function in GM1 deficient mice, T-maze test; assay type: in vivo, mouse; conditions: 4 wks dosing, 4 mice/group, saline control
Procedure: FIG. 6. […] T-maze test: 4 wks dosing with GM1 analog XVIII; 4 mice/group; age as indicated. The rate of alternation is a statistical plot as 0.5 (pure chance) to 1.0 (perfect score). Saline was administered as control.
HT and KO mice in two age groups were evaluated for cognitive function with the T maze test (FIG. 6).

[3] = tested on: NG-CR72 cells lacking GM1; test: Spontaneous alpha-synuclein aggregation in differentiated cells deficient in GM1; assay type: cell-based; conditions: 1 μM; cells differentiated with db-cAMP/KCl
Text: FIG. 9. Spontaneous formation of alpha-synuclein aggregates in cells deficient in GM1.

[4] = tested on: GM1 deficient mice (HT, KO); test: Rescue of striatal dopamine levels and dopaminergic cells in the GM1 deficient mouse (IHC of SNpc); assay type: in vivo; conditions: HT mice 200 days old, 2.5 mg/Kg, 3x/wk, ip, 5 weeks, vs saline
Procedure: FIG. 3. Reversal of PD neuropathology by GM1 replacement. HT mice (200 days old) were treated with saline or compound XVIII (2.5 mg/Kg; 3×/wk, ip) over 5 weeks.
Heterozygote mice (200 days old, DOA) were treated with saline or analog XVIII (2.5 mg/Kg; 3×/wk, IP) over 5 weeks.

[5] = tested on: NG108-15 neuroblastoma cells; test: Cell death and neurite outgrowth in MPP-treated differentiated neuroblastoma cells; assay type: cell-based
Text: FIG. 12. GM1 replacement therapy reduces cell death and increases neurite outgrowth. NG108-15 neuroblastoma cells were differentiated for 7 days with db-cAMP/KCl, then treated 2 days with MPP and indicated compound for 2 days. […] LIGA-20 is GM1 analog XVIII and compound 6 is analog XXXVII/XXXVIII.

[6] = tested on: RET phosphorylation (RET-p); test: RET phosphorylation in GM1 deficient mice, IHC with anti-RET-P and anti-TH; assay type: in vivo, mouse
Text: FIG. 8. GM1 replacement restores normal RET phosphorylation (RET-p) from subnormal state in GM1 deficient mice.

[7] = tested on: MPTP-treated mice; test: Rescue of striatal dopamine levels and dopaminergic cells in MPTP-treated mice; assay type: in vivo, C57B1/6 mice; conditions: once daily for 3 weeks after MPTP; GM1 30 mg/kg IP; analogs 2, 3, 4, 6, LIGA20 at 0.3 or 30 mg/Kg IP or 30 mg/Kg PO (FIG. 10)
Procedure: FIG. 10. GM1 analogs increase dopamine and TH+ cell numbers in the SNpc of MPTP treated mice. All agents administered once daily (I.P. or P.O.) for 3 weeks following MPTP treatment. (a) GM1 (1; 30 mg/Kg; IP), analog (3, 4 and 6; 0.3 mg/Kg; IP). (b) LIGA20 (2; 30 mg/Kg), analogs (2, 3 and 6; 30 mg/Kg; IP). (c) analogs (4 and 6; 30 mg/Kg; PO). (d) TH+IHC of the SNpc after treatment with saline or analog (6) (30 mg/Kg; PO) C=saline control. I and II are two separate experiments. Compound 2 is (XXIX/XXX), compound 3 is (XXVII/XXVIII), compound 4 is (XXXI/XXXII), compound 6 is (XXXVIII/XXXVII). LIGA20 is (XVIII).
C57B1/6 mice 7-8 weeks of age were treated with MPTP (b.i.d., 20 mg/kg, s.c.). The mice also receive a daily administration of saline, GM1 (30 mg/kg), or a compound of the invention (0.3 to 3 mg/kg, i.p. and 30 mg/kg os) for three weeks starting 24 h after the last MPTP injection. The brains were removed and analyzed for striatal dopamine levels. The midbrain were fixed for TH immunohistochemistry and dopamine neuron cell counts.

[8] = peripheral subcutaneous administration; cited from earlier work
[9] = tested on: Parkinson's disease patients; conditions: peripheral subcutaneous administration for 5 years; cited from earlier work
[10] = tested on: rat cortical cells; test: Protection of cortical cells from apoptosis (hydrogen peroxide, MTT assay); assay type: cell-based; conditions: 50 μM hydrogen peroxide, FIG. 11
Procedure: To induce apoptosis, rat cortical cells were cultured and treated with 50 μM hydrogen peroxide for three hours prior to being treated with the ganglioside analogue. The cells were also treated with the hydrogen peroxide during treatment with the ganglioside analogue and post-treatment for 48 h. Cell death was assayed using the MTT assay.

[11] = 1 μM, differentiated 7 days with db-cAMP/KCl, MPP and compound 2 days

## N[C@@H](Cc1ccc(O)c(O)c1)C(=O)O [L-DOPA, reference compound]
[1]; before and after IP injection of L-DOPA
  motor deficits (grip duration, irritant removal): alleviates motor deficits

## CCCCCCCCCCCCC/C=C/[C@@H](O)[C@H](CO[C@@H]1OC(CO)[C@@H](O[C@@H]2OC(CO)[C@H](O[C@@H]3OC(CO)[C@H](O)[C@H](O[C@@H]4OC(CO)[C@H](O)[C@H](O)C4O)C3NC(C)=O)[C@H](O[C@]3(C(=O)O)C[C@@H](O)[C@@H](NC(C)=O)C([C@H](O)[C@H](O)CO)O3)C2O)[C@H](O)C1O)NC(=O)C(Cl)Cl (some centres unmarked) [compound XVIII]
[2]
  cognitive function, T-maze rate of alternation: improves cognitive function
[1]; 2.5 mg/Kg, 3x/wk, IP, 5 weeks, vs saline, 2.5 mg/kg
  motor function (grip duration, irritant removal, pole climbing tests): significantly improved motor function; also recorded: improves motor function
[3]
  αSyn-aggregation (FITC-anti-αSyn antibody staining): suppressed
[4]
  TH+ dopaminergic neuron number in SNpc: increase in TH+ dopaminergic cells; also recorded: neuron number increase
  striatal dopamine (DA) levels: elevation of striatal dopamine; also recorded: DA levels increase
  αSyn aggregates in TH+ cells of SNpc: reduction of αSynuclein; also recorded: αSyn aggregates decrease
[5]; [11]
  % of cells with neurites: similarly improved
  relative cell number: significantly improved
[6]; HT mice (low GM1)
  RET phosphorylation (RET-p): significantly elevated
[6]; KO mice (no GM1)
  RET phosphorylation (RET-p): significantly elevated

## GM1
[7]
  striatal dopamine levels: increased striatal dopamine levels
[8]
  share of the administered dose able to penetrate the brain: less than 1%
[9]
  progression of motor function loss: slowed the progression of motor function loss
[10]
  protection of cells from apoptosis: provided protection of the cells from apoptosis
[5]; GM1 at 100 μM
  % of cells with neurites: similarly improved
[5]; GM1 at 100 μM, compared with LIGA-20 and compound 6 at 1 μM
  relative cell number: equivalent
